# From patent EP0086660B1, “Renally active tetrapeptides” (SMITHKLINE BECKMAN CORPORATION, priority 1982, dated 1985)
# Where two headings read alike, the source gives them in different places. Square brackets hold non-standard residues; d marks the D form. Peptide text beside a SMILES is read from it. * marks the point of attachment. Butanoyl(4-(4-HOPh)) = O=C(CCCc1ccc(O)cc1)*
# Key:
# anesthetized dogs = test: anesthetized dog protocol: infusion, measuring MAP, RBF, RVR and HR; type: in vivo
# [1] = secondary test
# [2] = tested on: spontaneously hypertensive rat
# [3] = secondary test; remark: listed apart in the source
# [4] = cumulative effects at 300 µg/kg/min
molecule,measurement,setting,value
"4-(4-hydroxyphenyl)-butyryl-L-prolyl-D,L-a-methylphenylalanyl-glycyl-L-proline [Example 2]",Renal blood flow,"anesthetized dogs; cumulative effect, measured after the normal period of the test, increased from 127 ml/min",162 mL/min
same,cardiac rate (HR),"anesthetized dogs; cumulative effect, measured after the normal period of the test, predrug level 140 BPM",105 BPM
same,ED15,[1],1.9e-06 µg/kg
same,activity in the spontaneously hypertensive rat protocol,"[2]; rat, in vivo",not active
same,water diuresis,[2]; spontaneously hypertensive rat protocol,slight water diuresis
same,reversal of antidiuretic hormone activity,toad bladder,inactive
"NCCc1ccc(O)c(O)c1 [Dopamine, dopamine]",ED15,[3],3.5 µg/kg
"O=C(NCC(=O)N1CCC[C@H]1C(=O)O)[C@@H](Cc1ccccc1)NC(=O)[C@@H]1CCCN1C(=O)CCCc1ccc(O)cc1 [Example 3, N-4-(4-hydroxyphenyl)-butyryl-L-prolyl-D-phenylalanyl-glycyl-L-proline] ({Butanoyl(4-(4-HOPh))}-P[dF]GP-OH)",HR,anesthetized dogs; [4],-8
same,RBF,anesthetized dogs; [4],+22
same,RVR,"anesthetized dogs; cumulative effects at 300 µg/kg/min, parameter name not printed before the value",-18
